PubChem BioAssay AID1996
In brackets after ≈: the same amount, converted by molar mass.

settings: buffer; pH 7.4; 200.0 µM

SMILES | solubility kinetic
CCC/C(O)=C1\C(=O)CC(C)(C)CC1=Nc1cccc([N+](=O)[O-])c1 | 0.0426 mg/mL (≈ 129 µM)
Cl.OC(CNCC#Cc1ccccc1)c1ccccc1 (stereo not given) | 0.0359 mg/mL
CN1CCN(c2ccccc2/C=C2/C(=O)Nc3ccccc32)CC1 | > 0.0479 mg/mL
Cc1ccc(CNc2nc(C)c(C(=O)N(C)C)s2)cc1 | > 0.0434 mg/mL
O=C(c1ccccc1NS(=O)(=O)c1ccccc1)N1CCCCCC1 | > 0.0538 mg/mL
CCn1c(C)cc(O)cc1=O | > 0.023 mg/mL
O=C(NC1CCCc2ccccc21)c1cc(Cl)ccn1 (stereo not given) | 0.0132 mg/mL (≈ 46 µM)
O=C1CCCC2=C1C(c1ccccc1)CC(=O)N2c1ccc(F)cc1F (stereo not given) | 0.0458 mg/mL (≈ 130 µM)
Cc1nn(CC(=O)NC2CC2)c(C)c1S(=O)(=O)NC(C)(C)C | > 0.0493 mg/mL
Cc1ccccc1C(=O)O/N=C(\N)c1ccc([N+](=O)[O-])cc1 | 0.006 mg/mL (≈ 20 µM)
O=C1CCC([N+](=O)[O-])C(c2ccccc2C(F)(F)F)N1 (stereo not given) | > 0.0432 mg/mL
O=C1CN(C(=O)COc2ccc(F)cc2Cl)c2ccccc2N1 | > 0.0502 mg/mL
COc1ccccc1C(=O)NCCOc1ccc(C(C)(C)C)cc1 | 0.0027 mg/mL (≈ 8.25 µM)
CN1C2CCC1CC(NC(=O)CSCc1ccc(Cl)cc1Cl)C2 (stereo not given) | > 0.056 mg/mL
Cc1nc(NC(=O)c2cc3ccccc3o2)sc1C | 0.0031 mg/mL (≈ 11.4 µM)
CCN(CC)P(=O)(c1nccn1C)N(CC)CC | 0.0407 mg/mL (≈ 149 µM)
COc1ccc2nc(NC(=O)c3cccs3)sc2c1 | < 0.0003 mg/mL
CNC(=O)c1sc(-c2ccccn2)nc1C | > 0.035 mg/mL
CCCCCOc1ccc(C(=O)CCC(=O)N2CCCC2)cc1 | > 0.0476 mg/mL
Cc1cc(=O)oc(C)c1C(=O)Nc1ccc(F)cc1 | > 0.0392 mg/mL
C=CCNC(=O)COc1ccc(Oc2ccccc2)cc1 | > 0.0425 mg/mL
Cc1nnc(SCC(=O)NC(=O)NCc2ccco2)s1 | > 0.0469 mg/mL
CSc1ccccc1NC(=S)NCc1ccc(Cl)cc1 | 0.0025 mg/mL (≈ 7.74 µM)
Cc1ccc(C(=O)Nc2ccc(Nc3ccccc3)cc2)cc1Br | < 0.0004 mg/mL

SMILES | solubility kinetic
COCc1cccc(C(=O)NC(c2ccccc2)c2ccccc2)c1 | 0.0031 mg/mL (≈ 9.35 µM)
O=C(NCCc1ccccc1)c1cccc(Br)c1 | 0.01 mg/mL (≈ 32.9 µM)
O=C1CN(C(=O)CN2C(=O)NC(c3ccccc3)(c3ccccc3)C2=O)c2ccccc2N1 | 0.0063 mg/mL (≈ 14.3 µM)
CC1CCCCC1NC(=O)CO/N=C/c1ccc(OC(F)F)cc1 (stereo not given) | 0.0087 mg/mL (≈ 25.6 µM)
Cc1cn2c(=O)c(C(=O)N3CCN(c4ccccc4)CC3)cnc2s1 | > 0.0532 mg/mL
Clc1nssc1=Nc1ccc(Br)cc1 | 0.0014 mg/mL (≈ 4.55 µM)
N#Cc1cccc(C(=O)N(CCc2ccccc2)Cc2cccs2)c1 | 0.0129 mg/mL (≈ 37.2 µM)
CS(=O)(=O)N1CCC(C(=O)Nc2cccc(F)c2)CC1 | > 0.0451 mg/mL
CNC(=O)Cc1csc2ccc(C)cc12 | 0.0304 mg/mL (≈ 139 µM)
Cc1cccc(C(=O)NCC(=O)N(C)Cc2nc3ccccc3c(=O)[nH]2)c1 | > 0.0547 mg/mL
Cc1ccccc1NC(=O)C1C2CCCCC21 (stereo not given) | 0.0034 mg/mL (≈ 14.8 µM)
COC(=O)C1CCN(Cc2nnc(-c3ccccc3)o2)CC1 | > 0.0452 mg/mL
Cc1ccc(OCC(=O)O/N=C(\N)Cc2ccc([N+](=O)[O-])cc2)cc1C | 0.0094 mg/mL (≈ 26.3 µM)
CC1CCN(C(=O)c2cc3c(ccc4ccccc43)o2)CC1 | < 0.0006 mg/mL
CN(C)C(=O)c1ccc(=O)n(Cc2ccc(Cl)cc2Cl)c1 | > 0.0488 mg/mL
CCCn1cnc2cc(NCc3ccccc3O)ccc21 | 0.0283 mg/mL (≈ 101 µM)
O=C(c1ccc(-c2ccccc2)cc1)N1CCN(c2ccc(F)cc2)CC1 | 0.0024 mg/mL (≈ 6.66 µM)
Cc1cccc(-c2nc(Nc3cccc(O)c3)c3ccccc3n2)c1 | 0.001 mg/mL (≈ 3.05 µM)
O=[N+]([O-])c1ccc(Cl)c(CN2CCCCCC2)c1 | 0.0138 mg/mL (≈ 51.3 µM)
O=[N+]([O-])c1c(NCCO)cc(N2CCCCCC2)c2nonc12 | 0.0405 mg/mL (≈ 126 µM)
CCCCN(C(=O)C1=NN(c2ccccc2)C(=O)CC1)c1c(N)n(CCC)c(=O)[nH]c1=O | > 0.0661 mg/mL
CC(=O)Nc1ccc(-n2c(C)ccc2-c2ccccc2)cc1 | 0.0044 mg/mL (≈ 15.2 µM)
O=C(OCc1nc2ccsc2c(=O)[nH]1)c1ccccc1 | > 0.0429 mg/mL
CCN1CCN(C(C)CCc2ccccc2)CC1 (stereo not given) | 0.0306 mg/mL (≈ 124 µM)

SMILES | solubility kinetic
CCOC(=O)c1c(C)[nH]c(C(=O)OCC(=O)NCc2ccc(C)cc2)c1C | 0.0026 mg/mL (≈ 6.98 µM)
O=C(O)c1ccc(NC(=O)C(c2ccccc2)c2ccccc2)cc1 | > 0.0497 mg/mL
O=C(COC(=O)c1ccccc1Nc1ccccc1F)c1ccccc1 | < 0.0007 mg/mL
CCn1c(CNC(=O)C23CC4CC(CC(C4)C2)C3)nnc1SC | > 0.0502 mg/mL
N/C(=N\OC(=O)/C=C/c1ccccc1Cl)c1ccncc1 | 0.0282 mg/mL (≈ 93.5 µM)
C=CCNC(=S)/N=c1/ccccn1CCC | 0.0351 mg/mL (≈ 149 µM)
CC(=O)Nc1cccc(-c2nc3ccccc3[nH]2)c1 | > 0.0377 mg/mL
COc1ccc(Nc2oc(-c3ccccc3)nc2C#N)cc1 | 0.0005 mg/mL (≈ 1.72 µM)
CC(=O)Nc1ccc(Oc2ccc3c(c2)C(=O)NC3=O)cc1 | 0.0169 mg/mL (≈ 57 µM)
O=C(Nc1nc2ccsc2c(=O)s1)c1ccc(F)cc1 | < 0.0003 mg/mL
C=CCc1cc(/C=C2/NC(=O)N(CC(=O)OC)C2=O)cc(OC)c1O | 0.0119 mg/mL (≈ 34.4 µM)
CC(C)Sc1sc(C(=O)O)c(-c2ccc(Cl)cc2)c1C#N | > 0.0507 mg/mL
Cc1oc(S(=O)(=O)N(C)C)cc1C(=O)Nc1ccc(Cl)cc1 | < 0.0004 mg/mL
O=C(OCc1ccc([N+](=O)[O-])cc1)C1CC(=O)N(Cc2ccccc2)C1 (stereo not given) | > 0.0532 mg/mL
O=C(CCc1ccccc1)Nc1ccccc1C(=O)N1CCOCC1 | > 0.0508 mg/mL
CC1=NN(c2ccccc2)C(=O)C1/C=C1\NC(=S)NC1=O (stereo not given) | > 0.0451 mg/mL
Cc1cc(F)ccc1NC(=O)c1cccnc1 | > 0.0345 mg/mL
Cc1onc(-c2ccccc2)c1NC(=O)N(CCC#N)Cc1cccs1 | 0.0544 mg/mL (≈ 148 µM)
COc1ccccc1NC(=O)c1sc(Cl)nc1C | 0.0368 mg/mL (≈ 130 µM)
Cc1ccc2nc(-c3ccsc3)c(NC3CCCC3)n2c1 | 0.0016 mg/mL (≈ 5.38 µM)
COC(=O)c1c(C)nsc1NC(=O)Oc1ccccc1 | 0.0027 mg/mL (≈ 9.24 µM)
O=C(Nc1c(-c2ccccc2)nc2ccccn12)c1ccccc1 | 0.0387 mg/mL (≈ 124 µM)
Cc1ccccc1OCC(=O)Nc1cccc(Cl)c1C | < 0.0006 mg/mL
NS(=O)(=O)c1ccc(CCNC(=O)c2ccc(Cl)s2)cc1 | 0.0106 mg/mL (≈ 30.7 µM)

SMILES | solubility kinetic
COc1ccc(CCNc2ncnc3c2c(C)c(C)n3CCO)cc1OC | 0.0538 mg/mL (≈ 145 µM)
COCC(C)NC(=O)c1ccc2nc(-c3ccccc3)c(-c3ccccc3)nc2c1 (stereo not given) | 0.0053 mg/mL (≈ 13.3 µM)
Cc1ccccc1-n1c(=S)[nH]c2nc3c(cc2c1=O)COC(C)(C)C3 | 0.0307 mg/mL (≈ 86.9 µM)
Nc1cccc(CCc2ccncc2)c1 | > 0.0297 mg/mL
C=CCNC(=S)NCc1ccccc1 | > 0.0309 mg/mL
CC(C)(C)NCC(O)COc1cccc2[nH]c(=O)[nH]c12.Cl (stereo not given) | > 0.0474 mg/mL
Cc1ccc2c(c1)N(CC(=O)N1CCCCC1)C(=O)CO2 | > 0.0433 mg/mL
CC(C)OC(=O)/C(C#N)=C\c1cccnc1 | 0.0282 mg/mL (≈ 130 µM)
O=C1NC2=C(C(=O)CCC2)C(c2ccc([N+](=O)[O-])cc2)N1 (stereo not given) | > 0.0431 mg/mL
CCOc1ccc(-c2ncncc2-c2ccc(OC)c(OC)c2)c(O)c1 | 0.0036 mg/mL (≈ 10.2 µM)
O=S(=O)(c1ccc(-c2ccon2)s1)N1CCOCC1 | > 0.0451 mg/mL
COCCNC(=O)CSc1ccccc1C(=O)O | > 0.0404 mg/mL
Cn1nccc1C(=O)NC1CCN(Cc2ccccc2)CC1 | > 0.0448 mg/mL
O=C(NCc1ccncc1)C(=O)NC1CC1 | > 0.0329 mg/mL
S=C(Cc1ccc(-c2ccccc2)cc1)N1CCOCC1 | 0.0007 mg/mL (≈ 2.35 µM)
Cc1cc(C(=O)N2CCC(C(=O)O)CC2)c(C(F)(F)F)o1 | > 0.0458 mg/mL
CSC1=N/C(=C/c2cccnc2)C(=O)N1Cc1ccc(Cl)cc1 | 0.0011 mg/mL (≈ 3.2 µM)
CC(C)c1nc(SCC(=O)NC(=O)NC(C)(C)C)n[nH]1 | > 0.0449 mg/mL
O=C(Nc1nncs1)c1cc(-c2ccco2)nc2ccccc12 | > 0.0484 mg/mL
O=c1c2[nH]cnc2n(-c2ccc(F)cc2)c(=O)n1Cc1ccccc1 | > 0.0504 mg/mL
COC(=O)[C@H](Cc1ccccc1)NC(=O)N(C)Cc1ccccc1 | > 0.049 mg/mL
COc1ccc(-c2cc(=O)oc(-c3cccc(C)c3)n2)cc1 | 0.0011 mg/mL (≈ 3.75 µM)
CCN(C(=O)COC(=O)C1=COCCO1)c1ccccc1 | > 0.0437 mg/mL
Cl.Clc1cccc(Cl)c1CSc1nnc([C@@H]2CCCN2)o1 | > 0.055 mg/mL

SMILES | solubility kinetic
CC(C)(C)NC(=O)Cn1c(Cl)nc2ccccc21 | > 0.0399 mg/mL
O=C(CSc1nccc(=O)[nH]1)c1cc2ccccc2o1 | > 0.0429 mg/mL
c1ccc(-c2nc(-c3cccnc3)cs2)cc1 | 0.0214 mg/mL (≈ 89.8 µM)
Cc1nc(Cl)c(C(=O)Nc2cccc(F)c2)c(C)c1Cl | 0.0049 mg/mL (≈ 15.6 µM)
Cc1ccc2ncnc(-c3ccccc3)c2c1 | 0.0255 mg/mL (≈ 116 µM)
COc1ccc(C(=O)Nc2cccc3c2CCCC3)cc1 | < 0.0006 mg/mL
COc1cc2c(cc1OC)CN(Cc1cc(OC)c(O)c(OC)c1)CC2 | 0.0477 mg/mL (≈ 133 µM)
O=C(O)c1cccc(N2C(=O)CSC2=S)c1 | > 0.038 mg/mL
Cc1ccc(OCc2ccc(-c3ccccc3)cc2)c([N+](=O)[O-])n1 | 0.0004 mg/mL (≈ 1.25 µM)
COc1cc(S(=O)(=O)NC2CCCCC2C)ccc1F (stereo not given) | > 0.0452 mg/mL
Br.Cc1ccc(C(=O)Cn2c(=N)n(N)c3ccccc32)cc1 | > 0.0542 mg/mL
CC(=O)c1c(C)n(Cc2ccccc2)c2ccc(O)cc12 | 0.0007 mg/mL (≈ 2.51 µM)
Cc1csc(NC(=O)CSc2nccn2Cc2ccco2)n1 | 0.0477 mg/mL (≈ 143 µM)
COc1ccc(C(=O)C[N+]2(C)CCOCC2)cc1.[I-] | > 0.0375 mg/mL
CCN(CC)c1ccc(NC(=O)Nc2ccccc2)cc1 | 0.0041 mg/mL (≈ 14.5 µM)
N/C(=N\OC(=O)c1cccc2ccccc12)c1ccccn1 | 0.0382 mg/mL (≈ 131 µM)
Cc1cccn2cc(-c3cccc(NC(=O)c4cccs4)c3)nc12 | 0.0055 mg/mL (≈ 16.5 µM)
Cc1cc(C(=O)CCC(=O)Nc2ncccc2C)c(C)s1 | 0.0261 mg/mL (≈ 86.3 µM)
O=C(COC(=O)/C=C/c1ccccc1[N+](=O)[O-])Nc1ccc(S(=O)(=O)N2CCOCC2)cc1 | 0.024 mg/mL (≈ 50.5 µM)
O=C(O)/C=C\C(=O)NCc1cccnc1 | > 0.0309 mg/mL
CCc1ccc(OCC2Cn3c(nc4c3c(=O)[nH]c(=O)n4C)O2)cc1 (stereo not given) | 0.0038 mg/mL (≈ 11.1 µM)
CCCC(C)NC(=O)c1sc2nc3n(c(=O)c2c1C)CCC3 (stereo not given) | > 0.0479 mg/mL
O=C(NCc1ccc2c(c1)OCO2)c1cc(Cl)ccc1Cl | 0.0017 mg/mL (≈ 5.24 µM)
O=C(CCSc1ccc(Cl)cc1)NC1CCCC1 | 0.0323 mg/mL (≈ 114 µM)
